# From patent US7300946B2, “N-(substituted arylmethyl)-4-(disubstituted methyl) piperidines and pyridines” (Bayer CropScience AG, priority 2002, dated 2007)
# System: tobacco budworm (Heliothis virescens [Fabricius])
# Test: surface-treated diet test against the tobacco budworm
# Assay type: in vivo
# Settings: tobacco budworm second instar larvae, surface-treated diet, 0.25 millimoles of candidate insecticide on the surface of the diet, five-day exposure; for Percent Mortality: compared to total number of insects infested; for Percent Growth Inhibition: inhibition of insect weight relative to untreated controls
# Outline: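 Wheat germ artificial diet surface-treated with 40 µL of 50 mM DMSO stock diluted 1:7 in 1:1 water/acetone (0.25 millimolar on diet), or sub-multiples for rate tests. One second-instar larva per well, 25° C, 60% RH, 5 days; percent weight inhibition vs DMSO controls and percent mortality.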
SMILES,Percent Mortality [%],Percent Growth Inhibition [%]
O=C(Nc1cccnc1Cl)OC(c1ccc(C(F)(F)F)cc1)C1CCN(Cc2ccc(Oc3ccccn3)cc2)CC1 (stereo not drawn) [Compound 447],100,100
COc1ccc(OC(=O)NC(c2ccc(OC(F)(F)F)cc2)C2CCN(Cc3ccc(-c4nnn(C)n4)cc3)CC2)cc1 (stereo not drawn) [Compound 356],100,100
CCCOc1ccc(CN2CCC(C(OC(=O)Nc3cccc(C(F)(F)F)c3)c3ccc(Cl)cc3)CC2)cc1 (stereo not drawn) [Compound 472],100,100
